Source: patent publication US20110166066A1, “CATESTATIN (CST) AND ITS VARIANTS FOR TREATMENT OF CARDIOVASCULAR AND METABOLIC DISORDERS” (priority 2008, published 2011)
Read-outs that look alike come from different tables or passages of the source. No end group written: not given here.

Experiments:
sympathochromaffin cells = conditions: in vitro, cited from earlier work
[1] = test system: WT, CgA-KO and HFD fed insulin resistant mice; experiment: Blood glucose / glucose tolerance tests; format: in vivo
Source text: (§1) Adult WT (C57BL/6) and CgA-KO mice with mixed genetic background (129svJ×C57BL/6) were used in this study. Both WT and KO mice were generated from the original founder carrying mixed genotype (50% 129svJ: 50% C57BL/6) and were maintained by brother/sister mating. Hypertensive CGA-KO mice will serve as a model for hyper insulin sensitivity. WT mice were fed 60% high fat diet (HFD) for 20 weeks. Body weight and blood glucose levels were monitored and glucose and insulin tolerance testa were performed to determine status of insulin resistance. After 20 weeks of HFD feeding mice were injected IP with catestatin (40 μg/gm body weight) twice daily for 7 days. On the 8th day, 12 hours fasted mice were subjected to glucose tolerance tests to determine their insulin sensitivity. Tissues of WT and CgA-KO mice are analyzed AMPK and eNOS signalling by immunoblotting.

C57/BL/6J mice cornea = experiment: Cornea neovascularisation assay; format: in vivo; conditions: pellet 500 ng, day 7
Experimental: Cornea Neovascularisation Assay. Pellets containing 500 ng Catestatin were implanted in C57/BL/6J mice (age of 8 weeks) as described (36). On postoperative day 7 mice received an intravenous injection of 500 μg BS1 lectin conjugated to FITC (Vector Laboratories). After euthanasia, enucleated eyes were fixed in 1% paraformaldehyde, corneas dissected and examined by fluorescence microscopy.

[2] = test system: Langendorff perfused rat heart; experiment: Isoproterenol stimulated Langendorff heart preparations; conditions: ISO 0.1 nM to 1 μM; WT-CST 33 and 110 nM, G364S-CST 200 nM, P370L-CST 165 nM
eNOS = eNOS signalling by immunoblotting of mouse tissues; format: in vivo; conditions: CgA-KO mice
Source text: as §1

[3] = test system: Langendorff perfused rat heart; experiment: Isoproterenol stimulated Langendorff heart preparations
Experimental: Isoproterenol stimulated preparations—Cardiac preparations were stabilized for 20 min with KHs and then perfused with 5 nM ISO for 10 min. ISO was washed-out with KHs. After returning to control conditions, each heart was perfused with KHs containing a single concentration of WT-Cts […] or G364S-Cts (200 nM) with 5 nM ISO for a further 10 min.
To further describe the antagonistic action of either WT-Cts (33 nM), P370L-Cts (110 nM) or G364S-Cts (200 nM) against ISO-dependent stimulation, dose-response curves were generated by perfusing the heart preparations with KHs enriched with increasing concentrations of ISO (0.1 nM to 1 μM) alone. These curves were then compared to those obtained by exposing other cardiac preparations to the same perfusion medium containing increasing concentrations of ISO (0.1 nM to 1 μM) plus a single concentration of either WT-Cts (33 nM) or P370L-Cts (110 nM) or G364S-Cts (200 nM).
Statistics—Data are expressed as the mean±SEM. Curve fitting was accomplished in the program Kaleidagraph (Synergy Software, Reading, Pa.). Peptide EC50 and IC50 values were interpolated as the concentration that achieved 50% stimulation and inhibition, respectively. For analysis of phosphorylated proteins, levels were quantified using Bio-Rad QuantifyOne and volumes of phosphorylated proteins were divided by the levels of non-phosphorylated proteins to calculate fold activation. Stimulation of protein activity was expressed as fold increase over vehicle-treated control. The means and S.E.M. were calculated for each treatment. Multiple comparisons were made using either one-way ANOVA followed by Bonferroni's post-hoc test or two-way ANOVA. Statistical significance was concluded at p<0.05. Statistics were computed with the program InStat (GraphPad Software, Inc., San Diego, Calif.).
To characterize the inhibitory action of either WT-CST (11, 33 or 110 nM), G364S-CST (200 nM) or P370L-CST (110 nM) toward ISO-dependent stimulation of cardiac function, heart preparations were perfused with KHs containing increasing concentrations of ISO (0.1 nM to 1 μM) either alone or in combination with one of the three CST variants.

ECs = experiment: In-vitro angiogenic effects on ECs (migration, proliferation, matrigel assay); format: cell-based
pAMPK = experiment: AMPK signalling by immunoblotting of mouse tissues; format: in vivo; conditions: CgA-KO mice
Source text: as §1

[4] = test system: WT and Chga knockout (KO) mice; experiment: Plasma catecholamine assay; format: in vivo; conditions: CST 40 μg/g bw ip for 30 min
Experimental: Catecholamine assay following immobilization stress: Mice were anesthetized by inhalation of “Isoflurane, USP” and blood was collected from the left ventricle in potassium EDTA tubes. […] Plasma catecholamine was measured by HPLC connected to an electrochemical detector (Waters 600E Multisolvent Delivery system and Waters 2465 Electrochemical Detector, MA) in a group of restraint mice (non-telemetered). Separation was performed on an Atlantis dC18 column (2.1×150 mm, 3 μm) from Waters. The mobile phase (0.15 ml/min) consisted of phosphate-citrate buffer and 2.2% N, N-Dimethylacetamide and acetonitrile at 95:5 (V/V). An internal standard 3,4-Dihydroxybenzylamine (DHBA, 1 ng) and an antioxidant sodium meta-bisulfite (final concentrations of 0.125 mM) were added to 0.25 ml of plasma. Following the addition of 15 mg of alumina (Aluminium oxide, Activity Grade: Super I, Type WA-4, Sigma-Aldrich, PA), the pH of the solution was raised to pH 8.6 by adding Tris buffer (0.96 M Tris, 50 mM EDTA, pH 8.69). Following a 30 min incubation and centrifugation (5000 rpm, 5 min), the supernatant was discarded and the beads were washed with water. The catecholamine was eluted with […] of 0.1 N HCl supplemented with 0.1 mM sodium meta-bisulfite. The data were analyzed using Empower software. Catecholamine levels were normalized with the recovery of internal standard.

EPCs = experiment: Effects on EPCs in-vitro; format: cell-based

For “SSMKLSFRARAYGFRGPGPQL [WT-CST, catestatin]”, the “Rank order of potency, inhibition of catecholamine secretion” value (sympathochromaffin cells; listed as wild-type (WT)) is listed as “Pro370Leu>wild-type (WT)>Gly364Ser>Arg374Gln”, the “Rank order of potency, inhibition of catecholamine secretion” value (sympathochromaffin cells; listed as wildtype (WT)) is listed as “Pro370Leu>wildtype (WT)>Gly364Ser>Arg374Gln” and the “Peak blood glucose level” value ([1]; HFD fed insulin resistant mice, 40 μg/gm IP twice daily 7 days) is listed as “reduced”. For the same sequence, the Blood glucose level ([1]; WT and CgA-KO mice) was “raised”, the “Reduction of blood glucose level (glucose tolerance tests)” value ([1]; insulin-resistant HFD mice) was 15-20% and the “Angiogenesis in the cornea” value (C57/BL/6J mice cornea) was “induced growth of arteries”. The “ISO-induced stimulation of LVP (concentration-response)” value [2] was “significantly inhibited”, the eNOS signal (eNOS) was “reduced” and the “Type of antagonism against ISO” value [3] was “non-competitive type of antagonism”. The “Block of ISO-dependent +(LVdP/dT)max” value ([3]; ISO 5 nM) was about 90%, the “ISO induced coronary dilation” value ([3]; ISO 5 nM) was “blocked” and the ISO-induced positive lusitropism ([3]; ISO 5 nM) was “blocked”. The “Rank order of potency against ISO” value ([3]; ISO 5 nM) was “Order of potency: WT-CST > G364S-CST > P370L-CST”, the “ISO stimulatory effect on LVP” value ([3]; ISO 5 nM, measured at 5 min) was “abolished” and the “Coronary pressure (ISO alone or ISO + peptide)” value ([3]; Table 3, ISO 5 nM) was “Abolished”. For the same sequence, the “Inotropism (ISO alone or ISO + peptide)” value ([3]; Table 3, ISO 5 nM) was “Abolished”, the “Lusitropism (ISO alone or ISO + peptide)” value ([3]; Table 3, ISO 5 nM) was “Abolished” and the “Concentration of maximal function” value (ECs) was 1 nM. For the same sequence, the “Direct effects on ECs” value (ECs) was “exerts several direct effects on ECs including EC migration and proliferation”, the “MAPK signaling pathway in ECs” value (ECs) was “induced activation of MAPK signaling pathway” and the “Angiogenic effects at higher concentration” value (ECs; 100 nM, EC migration, proliferation, in-vitro matrigel assay) was “angiogenic effects were still observed”. For the same sequence, the pAMPK signal (pAMPK) was “reduced”, the “Basal plasma norepinephrine and epinephrine” value [4] was “returned to WT level” and the “Effects on EPCs (chemotaxis, incorporation into vascular structures)” value (EPCs) was “showed effects on EPCs”.
